# Reference: PubChem BioAssay (NCI)
#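 Test compounds were applied to cells in 96-well plates for 48 hours at 5 doses. GI50 = concentration required for 50% inhibition of growth. TGI is the concentration that stops growth completely.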
# Key:
# Assay in all cases: NCI anticancer screen, dose series, 48 h
# SK-MEL-2 melanoma = test system: SK-MEL-2 melanoma
# NCI-H460 lung = test system: NCI-H460 lung
# SK-MEL-28 melanoma = test system: SK-MEL-28 melanoma
# HT29 colon = test system: HT29 colon
# TK-10 renal = test system: TK-10 renal
# IGROV1 ovarian = test system: IGROV1 ovarian
# MDA-MB-435 = test system: MDA-MB-435
# DU-145 prostate = test system: DU-145 prostate
# SW-620 colon = test system: SW-620 colon
# T-47D breast = test system: T-47D breast
# HOP-62 NSCLC = test system: HOP-62 NSCLC
# UO-31 renal = test system: UO-31 renal
# SK-MEL-5 melanoma = test system: SK-MEL-5 melanoma
# EKVX NSCLC = test system: EKVX NSCLC
# 786-0 renal = test system: 786-0 renal
# K-562 leukemia = test system: K-562 leukemia
# LOX IMVI melanoma = test system: LOX IMVI melanoma
# HCT-116 colon = test system: HCT-116 colon
# BT-549 breast = test system: BT-549 breast
# SK-OV-3 ovarian = test system: SK-OV-3 ovarian
# HOP-92 NSCLC = test system: HOP-92 NSCLC
# SF-295 CNS = test system: SF-295 CNS
# OVCAR-4 ovarian = test system: OVCAR-4 ovarian
# RXF 393 renal = test system: RXF 393 renal
# UACC-62 melanoma = test system: UACC-62 melanoma
# OVCAR-5 ovarian = test system: OVCAR-5 ovarian
# NCI-H226 lung = test system: NCI-H226 lung
# HL-60(TB) leukemia = test system: HL-60(TB) leukemia
# U251 CNS = test system: U251 CNS
smiles,measurement,setting,value
CCN(CC)CCn1c2ccc(O)cc2c2sc3cc(OC)ccc3c(=O)c21,GI50,SK-MEL-2 melanoma,9.15 µM
same,TGI,SK-MEL-2 melanoma,25.1 µM
same,GI50,NCI-H460 lung,1.22 µM
same,TGI,NCI-H460 lung,2.66 µM
same,GI50,SK-MEL-28 melanoma,1.8 µM
same,TGI,SK-MEL-28 melanoma,3.29 µM
same,GI50,HT29 colon,1.75 µM
same,TGI,HT29 colon,4.29 µM
same,GI50,TK-10 renal,9.04 µM
same,TGI,TK-10 renal,24.7 µM
same,GI50,IGROV1 ovarian,1.59 µM
same,TGI,IGROV1 ovarian,4.52 µM
same,GI50,MDA-MB-435,1.64 µM
same,TGI,MDA-MB-435,3.1 µM
same,GI50,DU-145 prostate,1.71 µM
same,TGI,DU-145 prostate,3.51 µM
same,GI50,SW-620 colon,0.675 µM
same,TGI,SW-620 colon,2.11 µM
same,GI50,T-47D breast,14.2 µM
same,TGI,T-47D breast,37.9 µM
same,GI50,HOP-62 NSCLC,6.03 µM
same,TGI,HOP-62 NSCLC,23.7 µM
same,GI50,UO-31 renal,1.9 µM
same,TGI,UO-31 renal,11.5 µM
same,GI50,SK-MEL-5 melanoma,1.74 µM
same,TGI,SK-MEL-5 melanoma,3.14 µM
same,GI50,EKVX NSCLC,1.67 µM
same,TGI,EKVX NSCLC,3.5 µM
same,GI50,786-0 renal,1.39 µM
same,TGI,786-0 renal,2.79 µM
same,GI50,K-562 leukemia,1.24 µM
same,TGI,K-562 leukemia,2.81 µM
same,GI50,LOX IMVI melanoma,1.21 µM
same,TGI,LOX IMVI melanoma,2.59 µM
same,GI50,HCT-116 colon,1.07 µM
same,TGI,HCT-116 colon,2.38 µM
same,GI50,BT-549 breast,6.09 µM
same,TGI,BT-549 breast,19.9 µM
same,GI50,SK-OV-3 ovarian,13.4 µM
same,TGI,SK-OV-3 ovarian,27.2 µM
same,GI50,HOP-92 NSCLC,2.58 µM
same,TGI,HOP-92 NSCLC,17 µM
same,GI50,SF-295 CNS,5.35 µM
same,TGI,SF-295 CNS,18.8 µM
same,GI50,OVCAR-4 ovarian,1.81 µM
same,TGI,OVCAR-4 ovarian,4.04 µM
same,GI50,RXF 393 renal,1.3 µM
same,TGI,RXF 393 renal,2.68 µM
same,GI50,UACC-62 melanoma,1.89 µM
same,TGI,UACC-62 melanoma,4.26 µM
same,GI50,OVCAR-5 ovarian,2.22 µM
same,TGI,OVCAR-5 ovarian,4.68 µM
same,GI50,NCI-H226 lung,10.4 µM
same,TGI,NCI-H226 lung,24.2 µM
same,GI50,HL-60(TB) leukemia,1.72 µM
same,TGI,HL-60(TB) leukemia,3.55 µM
same,GI50,U251 CNS,1.58 µM
